Assay results from US20090280169A1, “Compositions of peptides and processes of preparation thereof” (Merrion Research III Limited, priority 2008, published 2009).
Entries after “also recorded” stand apart in the source; their conditions may differ. Non-standard residues stand in square brackets, D forms with d. Residues, ends and D or L forms follow the SMILES beside them. dPhe(4-NH2) = Nc1ccc(C[C@@H](N)C(=O)O)cc1; dPhe(4-Cl) = N[C@H](Cc1ccc(Cl)cc1)C(=O)O; Phe(4-NH2) = Nc1ccc(C[C@H](N)C(=O)O)cc1; d2Nal = N[C@H](Cc1ccc2ccccc2c1)C(=O)O; Lys(iPr) = CC(C)NCCCC[C@H](N)C(=O)O; d3Pal = N[C@H](Cc1cccnc1)C(=O)O

Experiment: Gelation of acyline in pH 6.8 buffer with sodium caprate and Tween 80 (filtration, HPLC)
Format: physicochemical
Protocol: Different concentrations of acyline composition are prepared by adding acyline to pH 6.8 buffer solution either at room temperature or 37° C. All acyline solutions contain 0.6 mg/mL sodium caprate (sodium caprate is referred as C10 in the figures). All samples are centrifuged and filtered prior to analysis. Samples are analyzed by reverse phase HPLC with UV detection. 10 mg acyline is transferred into […] volumetric flask. A pH 6.8 buffer solution is preheated to 37° C. Then, 100 mL pre-heated buffer solution and 0.6 mg/mL sodium caprate is added to the flask to prepare a 0.1 mg/mL acyline sample. In a similar manner, Tween 80 is added to prepare a 0.1 mg/mL acyline solution with 1% Tween 80. Samples are shaken in a temperature controlled water bath at 37° C. 5 mL samples are taken at 1, 5, 10, 15, 20, 30 and 120 minutes after mixing acyline with the buffer solution. Samples are filtered immediately through 0.45 μm filters and the first 3 mL is discarded. Filtered samples are analyzed, undiluted, by reverse phase HPLC with UV detection. All samples are prepared in duplicate and the concentration was obtained for the analysis from the mean of the duplicates. The result of comparison of 1% and 0% Tween 80 at 0.1 mg/mL acyline sample is graphically recorded in FIG. 5. […] A similar experimental procedure as Example 4 is used to prepare acyline sample for example 5. The result of comparison of 5 mg/mL, 1.0 mg/mL, 0.1 mg/mL, and 0.1% Tween in phosphate buffer containing 0.6 mg/mL of sodium caprate and 0.1 mg/mL acyline is graphically recorded in FIG. 6. […] A similar experimental procedure as Example 4 is used to prepare acyline sample for example 6. The result of comparison of 1% and 1 mg/mL Tween 80 in 0.1 and 0.01 mg/mL acyline sample is graphically recorded in FIG. 7. […] A similar experimental procedure as Example 4 is used to prepare acyline sample for example 7. The result of comparison of 0.01 mg/mL acyline samples having 0.1%, 0.5% and 1% Tween 80 is graphically recorded in FIG. 8.

gelation of acyline (0.01 mg/mL acyline, 0.6 mg/mL sodium caprate, 1% Tween 80): significantly reduces the gelation | gelation of acyline (0.1 mg/mL acyline, 37° C., 0.6 mg/mL sodium caprate alone (0% Tween 80)): insufficient to reduce the gelation
SMILES: CC(=O)Nc1ccc(C[C@H](NC(=O)[C@H](CO)NC(=O)[C@@H](Cc2cccnc2)NC(=O)[C@@H](Cc2ccc(Cl)cc2)NC(=O)[C@@H](Cc2ccc3ccccc3c2)NC(C)=O)C(=O)N[C@H](Cc2ccc(NC(C)=O)cc2)C(=O)N[C@@H](CC(C)C)C(=O)N[C@@H](CCCCNC(C)C)C(=O)N2CCC[C@H]2C(=O)N[C@H](C)C(N)=O)cc1 [acyline, Ac-D2Nal-D4Cpa-D3Pal-Ser4Aph(Ac)-D4Aph(Ac)-Leu-ILys-Pro-DAla-NH2] (Ac-[d2Nal][dPhe(4-Cl)][d3Pal]S[Phe(4-NH2)](Ac)[dPhe(4-NH2)](Ac)L[Lys(iPr)]P[dA]-NH2)
gelation of acyline (0.1 mg/mL acyline, 0.6 mg/mL sodium caprate, 1% Tween 80): successfully reduces the gelation; also recorded: completely inhibit the gelation
